Laboratory results: publication PMC7655827, “NeoR, a near-infrared absorbing rhodopsin” (Nature Communications, 2020)

Columns and labels:
Format in all cases: binding
[1] = target: T1, NeoR (RGC3), rhodopsin fragment (Rhizoclosmatium globosum, UniProt A0A1Y2CSJ0, T238P); test: UV-Vis absorption and fluorescence of purified protein; settings: 50 mM HEPES pH 7.4, 200 mM NaCl, 0.02% DDM/0.004% CHS; covalent (retinal Schiff base)
T1 construct: gene BCR33DRAFT_847233; rhodopsin domain aa 1-279; C-terminal strepII tag (Sf21) or C-terminal 1D4 tag TETSQVAPA (HEK-T, mutants)
T1 sequence (A0A1Y2CSJ0 entry or part of it T238P): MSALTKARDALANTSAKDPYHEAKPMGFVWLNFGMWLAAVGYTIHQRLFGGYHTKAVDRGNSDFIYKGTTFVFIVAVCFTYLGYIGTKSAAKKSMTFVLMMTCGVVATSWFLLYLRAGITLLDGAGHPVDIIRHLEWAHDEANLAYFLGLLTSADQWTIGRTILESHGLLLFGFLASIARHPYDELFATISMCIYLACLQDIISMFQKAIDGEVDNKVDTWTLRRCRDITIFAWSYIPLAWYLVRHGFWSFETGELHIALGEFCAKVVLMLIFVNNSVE

[2] = target: T2, NeoR (RGC3), rhodopsin fragment (Rhizoclosmatium globosum, UniProt A0A1Y2CSJ0, S191A); test: as above; settings: 50 mM HEPES pH 7.4, 200 mM NaCl, 0.02% DDM/0.004% CHS; covalent (retinal Schiff base)
T2 construct: gene BCR33DRAFT_847233; rhodopsin domain aa 1-279; C-terminal strepII tag (Sf21) or C-terminal 1D4 tag TETSQVAPA (HEK-T, mutants)
T2 sequence (A0A1Y2CSJ0 entry or part of it S191A): as the sequence (A0A1Y2CSJ0 entry or part of it T238P) above, with S191A, P238T counted along it

[3] = target: T3, NeoR (RGC3), rhodopsin fragment (Rhizoclosmatium globosum, UniProt A0A1Y2CSJ0, E262Q); test: as above; settings: 50 mM HEPES pH 7.4, 200 mM NaCl, 0.02% DDM/0.004% CHS; covalent (retinal Schiff base)
T3 construct: gene BCR33DRAFT_847233; rhodopsin domain aa 1-279; C-terminal strepII tag (Sf21) or C-terminal 1D4 tag TETSQVAPA (HEK-T, mutants)
T3 sequence (A0A1Y2CSJ0 entry or part of it E262Q): as the sequence (A0A1Y2CSJ0 entry or part of it T238P) above, with P238T, E262Q counted along it

[4] = target: T4, NeoR (RGC3), rhodopsin fragment (Rhizoclosmatium globosum, UniProt A0A1Y2CSJ0, E136Q); test: as above; settings: 50 mM HEPES pH 7.4, 200 mM NaCl, 0.02% DDM/0.004% CHS; covalent (retinal Schiff base)
T4 construct: gene BCR33DRAFT_847233; rhodopsin domain aa 1-279; C-terminal strepII tag (Sf21) or C-terminal 1D4 tag TETSQVAPA (HEK-T, mutants)
T4 sequence (A0A1Y2CSJ0 entry or part of it E136Q): as the sequence (A0A1Y2CSJ0 entry or part of it T238P) above, with E136Q, P238T counted along it

[5] = target: T5, NeoR full-length protein (Rhizoclosmatium globosum, UniProt A0A1Y2CSJ0); test: UV-Vis absorption of purified protein; settings: detergent; covalent (retinal Schiff base)
T5 construct: gene BCR33DRAFT_847233; full length aa 1-509, C-terminal His(8) tag, Sf21 insect cells
T5 sequence (A0A1Y2CSJ0 1-509): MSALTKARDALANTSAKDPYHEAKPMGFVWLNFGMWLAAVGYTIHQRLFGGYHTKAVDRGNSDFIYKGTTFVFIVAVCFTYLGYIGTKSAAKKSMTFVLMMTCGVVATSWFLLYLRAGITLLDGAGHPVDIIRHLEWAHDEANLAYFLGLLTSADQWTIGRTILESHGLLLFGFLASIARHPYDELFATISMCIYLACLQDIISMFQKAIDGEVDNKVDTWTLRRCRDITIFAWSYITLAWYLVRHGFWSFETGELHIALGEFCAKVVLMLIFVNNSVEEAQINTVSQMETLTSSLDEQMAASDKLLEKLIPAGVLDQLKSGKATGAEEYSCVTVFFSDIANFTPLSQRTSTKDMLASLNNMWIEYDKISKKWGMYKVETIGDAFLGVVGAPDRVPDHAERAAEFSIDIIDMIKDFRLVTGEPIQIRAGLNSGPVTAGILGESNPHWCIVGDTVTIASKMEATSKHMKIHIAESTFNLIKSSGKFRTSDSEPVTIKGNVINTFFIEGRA

[6] = target: T6, NeoR (RGC3), rhodopsin fragment (Rhizoclosmatium globosum, UniProt A0A1Y2CSJ0); test: UV-Vis absorption and fluorescence of purified protein; settings: 50 mM HEPES pH 7.4, 200 mM NaCl, 0.02% DDM/0.004% CHS; covalent (retinal Schiff base)
T6 construct: gene BCR33DRAFT_847233; rhodopsin domain aa 1-279; C-terminal strepII tag (Sf21) or C-terminal 1D4 tag TETSQVAPA (HEK-T, mutants)

[7] = target: T7, NeoR (RGC3), rhodopsin fragment (Rhizoclosmatium globosum, UniProt A0A1Y2CSJ0, T238A); test: as above; settings: 50 mM HEPES pH 7.4, 200 mM NaCl, 0.02% DDM/0.004% CHS; covalent (retinal Schiff base)
T7 construct: gene BCR33DRAFT_847233; rhodopsin domain aa 1-279; C-terminal strepII tag (Sf21) or C-terminal 1D4 tag TETSQVAPA (HEK-T, mutants)
T7 sequence (A0A1Y2CSJ0 entry or part of it T238A): as the sequence (A0A1Y2CSJ0 entry or part of it T238P) above, with P238A counted along it

In the case of `CC1=C(/C=C/C(C)=C/C=C/C(C)=C/C=O)C(C)(C)CCC1` [all-trans retinal], the “UV-Vis absorption and fluorescence of purified protein” value (“UV-Vis absorption and fluorescence” below) [1] is reported as “achieved by mutation of S191A and T238P/A, which are located near the β-ionone ring”, the “UV-Vis absorption and fluorescence” value [2] is reported as “achieved by mutation of S191A and T238P/A, which are located near the β-ionone ring” and the “UV-Vis absorption and fluorescence” value [3] is reported as “Mutation of either one of these to Gln results in chromophore deprotonation”. For the same compound, the “UV-Vis absorption and fluorescence” value [4] was “Mutation of either one of these to Gln results in chromophore deprotonation”, the “UV-Vis absorption of purified protein” value [5] was “The spectral properties are similar for the NeoR full-length protein and the rhodopsin fragment” and the “UV-Vis absorption and fluorescence” value [6] was “in the absence of retinal no functional rhodopsin was produced when recombinant NeoR was expressed”. The “UV-Vis absorption and fluorescence” value [7] was “achieved by mutation of S191A and T238P/A, which are located near the β-ionone ring”.
